Legend:
[1] = target: T1, CDK2 (Homo sapiens, UniProt P24941); assay: CDK protein degradation activity (Western blotting), CDK2; type: cell-based; details: MDA-MB-231 cells, 16 hours, Western blot
T1 construct: endogenous in cells; host or cells: MDA-MB-231
Summary of the method: (§1)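 Degradation is judged from CDK2 and CDK9 band intensity relative to tubulin and DMSO-treated cells, after 16 h exposure of MDA-MB-231 cells to three compound concentrations (100 nM, 1 μM, 10 μM).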

[2] = target: T2, CDK9 (Homo sapiens, UniProt P50750); assay: CDK protein degradation activity (Western blotting), CDK9; type: cell-based; details: MDA-MB-231 cells, 16 hours, Western blot
T2 construct: endogenous in cells; host or cells: MDA-MB-231
T2 sequence (P50750 whole entry): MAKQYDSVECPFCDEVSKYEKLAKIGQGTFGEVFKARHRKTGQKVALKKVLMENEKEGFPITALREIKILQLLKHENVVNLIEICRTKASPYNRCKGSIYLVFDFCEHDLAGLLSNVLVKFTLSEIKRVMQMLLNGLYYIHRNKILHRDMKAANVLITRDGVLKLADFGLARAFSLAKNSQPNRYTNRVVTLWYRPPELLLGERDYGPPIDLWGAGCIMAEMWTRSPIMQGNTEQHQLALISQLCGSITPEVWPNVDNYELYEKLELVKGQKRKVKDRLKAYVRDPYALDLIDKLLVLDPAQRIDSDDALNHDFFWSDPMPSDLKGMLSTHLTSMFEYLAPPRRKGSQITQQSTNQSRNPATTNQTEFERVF
Summary of the method: as §1

Compound | Enzyme degradation CDK2 (% remaining) @ 0.1 μM [1] | Enzyme degradation CDK2 (% remaining) @ 1 μM [1] | Enzyme degradation CDK2 (% remaining) @ 10 μM [1] | Enzyme degradation CDK9 (% remaining) @ 0.1 μM [2] | Enzyme degradation CDK9 (% remaining) @ 1 μM [2] | Enzyme degradation CDK9 (% remaining) @ 10 μM [2]
O=C1CC[C@H](N2C(=O)c3ccc(N4CCN(CC5CCN(c6ccc(Nc7ncnc8c7ncn8C7CC(NC(=O)Cc8ccccc8)C7)cc6)CC5)CC4)cc3C2=O)C(=O)N1 (stereo partly drawn) [Compound 319, N-((1s,3s)-3-(6-((4-(4-((4-(2-(2,6-dioxopiperidin-3-yl)-1,3-dioxoisoindolin-5-yl)piperazin-1-yl)methyl)piperidin-1-yl)phenyl)amino)-9H-purin-9-yl)cyclobutyl)-2-phenylacetamide] | 10% | 0% | 0% | 70% | 0% | 0%
O=C1CC[C@H](N2C(=O)c3cccc(NCC(=O)N4CCN(CC5CCN(c6ccc(Nc7ncnc8c7ncn8[C@H]7C[C@@H](NC(=O)Cc8ccccc8)C7)cc6)CC5)CC4)c3C2=O)C(=O)N1 [Compound 322, N-((1s,3s)-3-(6-((4-(4-((4-((2-(2,6-dioxopiperidin-3-yl)-1,3-dioxoisoindolin-4-yl)glycyl)piperazin-1-yl)methyl)piperidin-1-yl)phenyl)amino)-9H-purin-9-yl)cyclobutyl)-2-phenylacetamide] | 20% | 10% | 20% | 20% | 10% | 20%
O=C1CC[C@H](N2C(=O)c3cc(F)c(N4CCC(CCN5CCN(c6ccc(Nc7ncnc8c7ncn8C7CC(NC(=O)Cc8ccccc8)C7)cc6)CC5)CC4)cc3C2=O)C(=O)N1 (stereo partly drawn) [Compound 323, N-((1s,3s)-3-(6-((4-(4-(2-(1-(2-(2,6-dioxopiperidin-3-yl)-6-fluoro-1,3-dioxoisoindolin-5-yl)piperidin-4-yl)ethyl)piperazin-1-yl)phenyl)amino)-9H-purin-9-yl)cyclobutyl)-2-phenylacetamide] | 60% | 50% | 40% | 0/0/0% | 0/0/0% | 0/0/0%
O=C1CC[C@H](N2C(=O)c3cccc(OCC(=O)N4CCN(CC5CCN(c6ccc(Nc7ncnc8c7ncn8C7CC(NC(=O)Cc8ccccc8)C7)cc6)CC5)CC4)c3C2=O)C(=O)N1 (stereo partly drawn) [Compound 326, N-((1s,3s)-3-(6-((4-(4-((4-(2-((2-(2,6-dioxopiperidin-3-yl)-1,3-dioxoisoindolin-4-yl)oxy)acetyl)piperazin-1-yl)methyl)piperidin-1-yl)phenyl)amino)-9H-purin-9-yl)cyclobutyl)-2-phenylacetamide] | 20% | 0% | 0% | 80% | 10% | 0%

Continued, values first:

Enzyme degradation CDK2 (% remaining) @ 0.1 μM [1] | Enzyme degradation CDK2 (% remaining) @ 1 μM [1] | Enzyme degradation CDK2 (% remaining) @ 10 μM [1] | Enzyme degradation CDK9 (% remaining) @ 0.1 μM [2] | Enzyme degradation CDK9 (% remaining) @ 1 μM [2] | Enzyme degradation CDK9 (% remaining) @ 10 μM [2] | Compound
10/10/10% | 10/10/10% | 10/10/10% | 0/0/0% | 0/0/0% | 0/0/0% | O=C1CC[C@H](n2nnc3ccc(N4CCC5(CC4)CC(N4CCN(c6ccc(Nc7ncnc8c7ncn8[C@H]7C[C@@H](NC(=O)c8c(Cl)cccc8Cl)C7)cc6)CC4)C5)cc3c2=O)C(=O)N1 [Compound 317, 2,6-dichloro-N-((1s,3s)-3-(6-((4-(4-(7-(3-(2,6-dioxopiperidin-3-yl)-4-oxo-3,4-dihydrobenzo[d][1,2,3]triazin-6-yl)-7-azaspiro[3.5]nonan-2-yl)piperazin-1-yl)phenyl)amino)-9H-purin-9-yl)cyclobutyl)benzamide]
20% | 20% | 40% | 0/0/0% | 0/0/0% | 0/0/0% | O=C1CC[C@H](N2C(=O)c3ccc(NCC(=O)N4CCC5(CC4)CC(N4CCN(c6ccc(Nc7ncnc8c7ncn8C7CC(NC(=O)c8c(Cl)cccc8Cl)C7)cc6)CC4)C5)cc3C2=O)C(=O)N1 (stereo partly drawn) [Compound 318, 2,6-dichloro-N-((1s,3s)-3-(6-((4-(4-(7-((2-(2,6-dioxopiperidin-3-yl)-1,3-dioxoisoindolin-5-yl)glycyl)-7-azaspiro[3.5]nonan-2-yl)piperazin-1-yl)phenyl)amino)-9H-purin-9-yl)cyclobutyl)benzamide]
20% | 0% | 0% | 80% | 10% | 10% | O=C1CC[C@H](n2nnc3ccc(N4CCN(CC5CCN(c6ccc(Nc7ncnc8c7ncn8C7CC(NC(=O)Cc8ccccc8)C7)cc6)CC5)CC4)cc3c2=O)C(=O)N1 (stereo partly drawn) [Compound 320, N-((1s,3s)-3-(6-((4-(4-((4-(3-(2,6-dioxopiperidin-3-yl)-4-oxo-3,4-dihydrobenzo[d][1,2,3]triazin-6-yl)piperazin-1-yl)methyl)piperidin-1-yl)phenyl)amino)-9H-purin-9-yl)cyclobutyl)-2-phenylacetamide]
70% | 80% | 10% | 0/0/0% | 0/0/0% | 0/0/0% | O=C1CC[C@H](n2nnc3ccc(N4CCC(CCN5CCN(c6ccc(Nc7ncnc8c7ncn8C7CC(NC(=O)Cc8ccccc8)C7)cc6)CC5)CC4)cc3c2=O)C(=O)N1 (stereo partly drawn) [Compound 324, N-((1s,3s)-3-(6-((4-(4-(2-(1-(3-(2,6-dioxopiperidin-3-yl)-4-oxo-3,4-dihydrobenzo[d][1,2,3]triazin-6-yl)piperidin-4-yl)ethyl)piperazin-1-yl)phenyl)amino)-9H-purin-9-yl)cyclobutyl)-2-phenylacetamide]
40% | 60% | 60% | 80% | 0% | 0% | O=C1CC[C@H](N2C(=O)c3ccc(OCC(=O)N4CCN(CC5CCN(c6ccc(Nc7ncnc8c7ncn8C7CC(NC(=O)c8c(Cl)cccc8Cl)C7)cc6)CC5)CC4)cc3C2=O)C(=O)N1 (stereo partly drawn) [Compound 325, 2,6-dichloro-N-((1s,3s)-3-(6-((4-(4-((4-(2-((2-(2,6-dioxopiperidin-3-yl)-1,3-dioxoisoindolin-5-yl)oxy)acetyl)piperazin-1-yl)methyl)piperidin-1-yl)phenyl)amino)-9H-purin-9-yl)cyclobutyl)benzamide]

Source: patent publication US20260125382A1, “COMPOUNDS FOR INHIBITING OR DEGRADING CDK2 AND/OR CDK9 AND MEDICINAL USE THEREOF” (KOREA RESEARCH INSTITUTE OF CHEMICAL TECHNOLOGY, priority 2022, published 2026)
